Values of other authors, collected in patent US20110111022A1, “PHARMACEUTICAL FORMULATION” (priority 2008, published 2011).

Assays:
[1] = concurrent administration of aliskiren and irbesartan
[2] = target: hepatic cytochrome P450 3A4 (Homo sapiens, UniProt P08684)
Chain of hepatic cytochrome P450 3A4 (P08684 whole entry): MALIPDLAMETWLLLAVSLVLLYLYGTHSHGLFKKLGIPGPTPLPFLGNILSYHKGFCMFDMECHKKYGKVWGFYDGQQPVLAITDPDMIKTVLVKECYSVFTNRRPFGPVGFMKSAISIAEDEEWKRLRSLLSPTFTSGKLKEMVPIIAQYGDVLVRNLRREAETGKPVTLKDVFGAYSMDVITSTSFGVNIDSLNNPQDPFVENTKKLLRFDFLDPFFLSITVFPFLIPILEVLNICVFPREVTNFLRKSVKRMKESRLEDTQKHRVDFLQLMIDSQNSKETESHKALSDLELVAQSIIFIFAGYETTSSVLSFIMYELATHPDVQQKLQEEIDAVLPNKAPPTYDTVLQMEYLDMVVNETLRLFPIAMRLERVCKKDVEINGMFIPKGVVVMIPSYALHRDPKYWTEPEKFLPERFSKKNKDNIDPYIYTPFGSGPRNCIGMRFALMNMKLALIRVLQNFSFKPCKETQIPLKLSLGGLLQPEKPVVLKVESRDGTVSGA

## COCCCOc1cc(C[C@@H](C[C@H](N)[C@@H](O)C[C@H](C(=O)NCC(C)(C)C(N)=O)C(C)C)C(C)C)ccc1OC [aliskiren, 2(S),4(S),5(S),7(S)—N-(3-amino-2,2-dimethyl-3-oxopropyl)-2,7-di(1-methylethyl)-4-hydroxy-5-amino-8-[4-methoxy-3-(3-methoxy-propoxy)phenyl]-octanamide]
[1]
  decrease in blood aliskiren level: 50%
[2]
  metabolism in in vitro experiments: metabolized by hepatic cytochrome P450 3A4
other
  solubility in water: easily soluble in water
